The structures appear in SMILES notation. Numbered stars: 1 amine (or outer) side, 2 acyl side, 3 side chain; on linkers, the order of the positions; unused ones are H or OH. Bridge positions count the residues as written; N and C are the ends. Square brackets hold non-standard residues; d marks the D form. Peptide text beside a SMILES is read from it. * marks the point of attachment. hPhe(3-Cl-4-CF3) = N[C@@H](CCc1ccc(C(F)(F)F)c(Cl)c1)C(=O)O; hPhe(3-F,4-CF3) = N[C@@H](CCc1ccc(C(F)(F)F)c(F)c1)C(=O)O; NMePhe(4-CF3) = CN[C@@H](Cc1ccc(C(F)(F)F)cc1)C(=O)O; hPhe(4-CF3) = N[C@@H](CCc1ccc(C(F)(F)F)cc1)C(=O)O; Pro(cis-4-Ph) = O=C(O)[C@@H]1C[C@H](c2ccccc2)CN1; 3Oxa8azabicyclo(3.2.1)octane = C1CC2COCC1N2*; NMePhe(4-Cl) = CN[C@@H](Cc1ccc(Cl)cc1)C(=O)O; NMePhe(3-F) = CN[C@@H](Cc1cccc(F)c1)C(=O)O; NMedβ3hAla = C[C@H](CC(=O)[*:2])N(C)[*:1]; NMeGly(cPent) = CN[C@H](C(=O)O)C1CCCC1; Pip(4-oxo) = O=C1CCN[C@H](C(=O)O)C1; NMeCha = CN[C@@H](CC1CCCCC1)C(=O)O; N(isopentyl)Gly = CC(C)CCNCC(=O)O; NMeChg = CN[C@H](C(=O)O)C1CCCCC1; NMeF = CN[C@@H](Cc1ccccc1)C(=O)O; NMeI = CC[C@H](C)[C@H](NC)C(=O)O; NMeD = CN[C@@H](CC(=O)O)C(=O)O; NMeL = CN[C@@H](CC(C)C)C(=O)O; NMeV = CN[C@H](C(=O)O)C(C)C; d(β3hA) = C[C@@H](N)CC(=O)O; NMeS = CN[C@@H](CO)C(=O)O; Pip = O=C(O)[C@@H]1CCCCN1; NMeA = CN[C@@H](C)C(=O)O; NMeAib = CNC(C)(C)C(=O)O; Piperidide = C1CCN(*)CC1; Pyrrolidide = C1CCN(*)C1; Ac5c = NC1(C(=O)O)CCCC1; Aze = O=C(O)[C@@H]1CCN1; Ac3c = NC1(C(=O)O)CC1; Sar = CNCC(=O)O; Propyl = CCC*

This test relates to Human pancreatic cancer cell line AsPC-1 (G12D mutation Kras). The test is described as follows: AsPC-1 cell growth inhibition (AsPC-1 CGI). It is filed as cell-based. As to conditions: read-out: AsPC-1 cell growth inhibition, 50% growth inhibitory concentration (IC50 value); 96 hours, CellTiter-Glo, values classified in ranges.
Experimental: Test compounds were serially dilated with dimethyl sulfoxide, and 200 nL was then dispensed to a U-bottom 96-well plate using Labcyte Echo. […] The cell suspension was dispensed to a. plate containing a test compound at 100 μL per well and incubated at 37° C. in a 5% carbon dioxide gas incubator. 96 hours later, 80 μL of CellTiter-Glo (Promega) was added to each well and fluorescence was measured.
Regarding `CC[C@H](C)[C@@H]1NC(=O)[C@H](CC(C)C)N(C)C(=O)C[C@@H](C)NC(=O)[C@H](C(C)C)N(C)C(=O)C2(CC2)NC(=O)[C@@H]2CCCN2C(=O)[C@H](CCc2ccc(C(F)(F)F)c(Cl)c2)NC(=O)CN(C)C(=O)[C@H](CC2CCCCC2)N(C)C(=O)CN(C)C(=O)CN(C)C1=O` [Compound 1111] (cyclo([Ac3c][NMeV][d(β3hA)][NMeL]I[Sar][Sar][NMeCha][Sar][hPhe(3-Cl-4-CF3)]P)), the IC50 was > 500 nM.

For the compound `CC[C@H](C)[C@@H]1NC(=O)[C@@H]2CCCCN2C(=O)C[C@@H](C)NC(=O)[C@H](C(C)C)N(C)C(=O)[C@H](Cc2ccccc2)N(C)C(=O)[C@H](CC(C)C)N(C)C(=O)[C@H](CCc2ccc(C(F)(F)F)cc2)NC(=O)CN(C)C(=O)[C@H](Cc2ccc(Cl)cc2)N(C)C(=O)CN(C)C(=O)CN(C)C1=O` [Compound 1110] (cyclo(I[Sar][Sar][NMePhe(4-Cl)][Sar][hPhe(4-CF3)][NMeL][NMeF][NMeV][d(β3hA)][Pip])), the IC50 is > 500 nM.

Regarding `CCCOC[C@H]1C(=O)N(C)CC(=O)N[C@@H](CCc2ccc(C(F)(F)F)c(F)c2)C(=O)N2CCC[C@H]2C(=O)NC2(CCCC2)C(=O)N(C)[C@@H](C2CCCC2)C(=O)N(C)[C@H](C(=O)N2CCCC2)CC(=O)N(C)[C@@H](CC(C)C)C(=O)N[C@@H]([C@@H](C)CC)C(=O)N(C)[C@@H](C)C(=O)N2CC[C@H]2C(=O)N1C` [Compound 987] ([NMeL]I[NMeA][Aze][NMeS](Propyl)[Sar][hPhe(3-F,4-CF3)]P[Ac5c][NMeGly(cPent)][NMeD]-Pyrrolidide; lactam N-11), the IC50 was ≤ 20 nM.

Turning to `CC[C@H](C)[C@@H]1NC(=O)[C@H](C)N(C)C(=O)C[C@@H](C)NC(=O)[C@H](C2CCCC2)N(C)C(=O)C2(CCCC2)NC(=O)[C@@H]2CCCN2C(=O)[C@H](CCc2ccc(C(F)(F)F)c(Cl)c2)NC(=O)CN(C)C(=O)[C@H](Cc2cccc(F)c2)N(C)C(=O)[C@@H]2CCCN2C(=O)CN(C)C1=O` [Compound 194] (cyclo([Ac5c][NMeGly(cPent)][d(β3hA)][NMeA]I[Sar]P[NMePhe(3-F)][Sar][hPhe(3-Cl-4-CF3)]P)), the IC50 was > 500 nM.

Consider `CC[C@H](C)[C@@H]1NC(=O)[C@H](CC(C)C)N(C)C(=O)C[C@@H](C(=O)N2C3CCC2COC3)N(C)C(=O)[C@H]([C@@H](C)CC)N(C)C(=O)C2(CCCC2)NC(=O)[C@@H]2CCCN2C(=O)[C@H](CCc2ccc(C(F)(F)F)c(Cl)c2)NC(=O)CN(C)C(=O)[C@H](Cc2ccc(C(F)(F)F)cc2)N(C)C(=O)[C@@H]2CCN2C(=O)[C@H](C)N(C)C1=O` [Compound 545] ([NMeL]I[NMeA][Aze][NMePhe(4-CF3)][Sar][hPhe(3-Cl-4-CF3)]P[Ac5c][NMeI][NMeD]-{3Oxa8azabicyclo(3.2.1)octane}; lactam N-11), for which the IC50 was ≤ 20 nM.

As for `CC[C@H](C)[C@@H]1NC(=O)[C@H](CC(C)C)N(C)C(=O)C[C@@H](C)NC(=O)[C@H](C(C)C)N(C)C(=O)C2(CCCC2)NC(=O)[C@@H]2CCCN2C(=O)[C@H](CCc2ccc(C(F)(F)F)c(Cl)c2)NC(=O)CN(C)C(=O)[C@H](CC2CCCCC2)N(C)C(=O)CN(CCC(C)C)C(=O)CN(C)C1=O` [Compound 801] (cyclo([Ac5c][NMeV][d(β3hA)][NMeL]I[Sar][N(isopentyl)Gly][NMeCha][Sar][hPhe(3-Cl-4-CF3)]P)), the IC50 was > 500 nM.

For the compound `CC[C@H](C)[C@@H]1NC(=O)[C@H](C)N(C)C(=O)C[C@@H](C)N(C)C(=O)[C@H](CC(C)C)NC(=O)C(C)(C)N(C)C(=O)[C@H](CC(C)C)NC(=O)[C@H](CCc2ccc(C(F)(F)F)c(Cl)c2)NC(=O)CN(C)C(=O)[C@H](CC2CCCCC2)N(C)C(=O)[C@@H]2CCN2C(=O)CN(C)C1=O` [Compound 1387] (cyclo([Aze][NMeCha][Sar][hPhe(3-Cl-4-CF3)]L[NMeAib]L[NMedβ3hAla][NMeA]I[Sar])), the IC50 is > 500 nM.

On to `CC[C@H](C)[C@@H]1NC(=O)[C@H](CC(C)C)N(C)C(=O)C[C@@H](C(=O)N2CCCCC2)N(C)C(=O)[C@H](C2CCCCC2)N(C)C(=O)C2(CCCC2)NC(=O)[C@@H]2CC(=O)CCN2C(=O)[C@H](CCc2ccc(C(F)(F)F)c(Cl)c2)NC(=O)CN(C)C(=O)[C@H](CC2CCCCC2)N(C)C(=O)CN(C)C(=O)CN(C)C1=O` [Compound 1089] ([NMeL]I[Sar][Sar][NMeCha][Sar][hPhe(3-Cl-4-CF3)][Pip(4-oxo)][Ac5c][NMeChg][NMeD]-Piperidide; lactam N-11), for which the IC50 was > 500 nM.

For the compound `CC[C@H](C)[C@@H]1NC(=O)[C@H](CC(C)C)N(C)C(=O)C[C@@H](C(=O)N2CCCCC2)N(C)C(=O)[C@H](C2CCCCC2)N(C)C(=O)C2(CCCC2)NC(=O)[C@@H]2C[C@H](c3ccccc3)CN2C(=O)[C@H](CCc2ccc(C(F)(F)F)c(Cl)c2)NC(=O)CN(C)C(=O)[C@H](CC2CCCCC2)N(C)C(=O)[C@@H]2CCN2C(=O)[C@H](C)N(C)C1=O` [Compound 1053] ([NMeL]I[NMeA][Aze][NMeCha][Sar][hPhe(3-Cl-4-CF3)][Pro(cis-4-Ph)][Ac5c][NMeChg][NMeD]-Piperidide; lactam N-11), the IC50 was > 500 nM.

The values above are taken from patent publication US20240148821A1, “PHARMACEUTICAL USE OF CYCLIC PEPTIDE COMPOUND” (CHUGAI SEIYAKU KABUSHIKI KAISHA, priority 2021, published 2024).
